{"source": "patent US20150072416A1", "about": "“METABOLITE FOR IMPROVING PRODUCTION, MAINTENANCE AND PROLIFERATION OF PLURIPOTENT STEM CELLS, COMPOSITION COMPRISING THE SAME, AND METHOD OF CULTURING PLURIPOTENT STEM CELL USING THE SAME” (KOREA RESEARCH INSTITUTE OF BIOSCIENCE AND BIOTENOLOGY, priority 2012, published 2015)", "tested_on": "embryonic stem cells", "experiment": "Embryonic stem cells treated with NAD+ synthesis inhibitor FK866 and NAD precursors (NAD level, AP activity, apoptosis)", "type": "cell-based, human", "experimental": "Embryonic stem cells were treated with nicotinamide and related compounds, and after 6 days, protein was isolated from the cells. NAD cycling enzyme was added to and reacted with 20 μg of the protein per each group at room temperature for 5 minutes, and then a NADH developer was added and reacted therewith for 2-3 hours. The absorbance at 450 nm was measured using a microplate reader, and the amount of the […] was quantified.\nAP staining was performed using a commercial AP kit (Sigma) according to the manufacturer's instruction. Images of AP-positive cells were recorded with HP Scanjet G4010. Also, bight field images were obtained with an Olympus microscope (IX51, Olympus, Japan).\nIn order to examine the effect of nicotinamide on a reduction in the apoptosis of human pluripotent stem cells, dual apoptosis assay (Biotium, Hayward, Calif.) was performed. Embryonic stem cells or cells reprogrammed were stained with NucView™488 Caspase-3 Substrate (green)/Annextin V (red) at room temperature for 30 minutes, followed by washing with PBS. At least 4 sections of each sample were imaged with an Olympus fluorescence microscope (IX51, Olympus), and the number of cells stained with green (Caspase-3) was counted to quantify the degree of apoptosis."}
{"smiles": "O=C(/C=C/c1cccnc1)NCCCCC1CCN(C(=O)c2ccccc2)CC1", "note": "[FK866]", "values": [{"measurement": "apoptosis", "setting": "treated with FK866", "result": "induced"}, {"measurement": "concentration of NAD in the cells", "setting": "treated with FK866", "result": "decreased"}, {"measurement": "state of the embryonic stem cells", "setting": "treated with FK866", "result": "differentiated"}]}
{"smiles": "O=C(O)c1cccnc1", "note": "[nicotinic acid]", "values": [{"measurement": "recovery from damage caused by FK866", "setting": "co-treatment with FK866, also in mTeSR1-CDM", "result": "recovered"}]}
